Measurements reported in US20090111781A1, “Use of Cymipristone Type Compounds in Aids Treatment” (SHANGHAI THREE-ALLIANCE BIOTECHNOLOGIES CO., LTD., priority 2005, published 2009).
≈ marks a conversion by molar mass, not a printed value.

Legend:
in vitro = settings: human
Method: (§1) Collect cells with curette, infect cells with 10^−2 AZT sensitive (018a) or AZT resistant (018c) virus strain liquid, and adsorb for 2 hours, Wash off unabsorbed virus with 1640 culture medium without serum, prepare cells infected by virus to 1×10^6/ml with culture solution, and inoculate on 96-pore culture plate, 100 μl/pore. […] Set cell control group and virus infected cell control group. Incubate under 37° C. and 5% CO2. On the fourth day (96 hours), pipette out the supernatant liquid and store under −20° C. for determination of HIV-1 P24 antigen titer and calculation of drug inhibitory action. Add MTT staining to cells for determination of cytotoxicity. Determination of cytotoxicity by MTT staining: Add 10 μl of 5 mg/ml MTT stain into each pore, continue to incubate under 37° C., 5% CO2 and saturated humidity for 4 hours. […] Determine the HIV-1 P24 antigen titer according to the operation procedure provided by the HIV-1 P24 antigen reagent kit. Compare the drug-added group with virus control group. […] Calculation method of 50% toxic concentration (CC50), 50% effective concentration (EC50) and selection index (SI): […]

[1] = test system: HIV-1 AZT-sensitive strain 018a P24 antigen; test: Inhibition of HIV-1 018a P24 antigen in PBMC cell culture; type: cell-based; settings: for EC50: Human immunodeficiency virus 1, PBMC, 2 h, administration after adsorbing 2 hours
Method: (§2) Collect cells with curette, infect cells with 10^−2 AZT sensitive (018a) or AZT resistant (018c) virus strain liquid, and adsorb for 2 hours, Wash off unabsorbed virus with 1640 culture medium without serum, prepare cells infected by virus to 1×10^6/ml with culture solution, and inoculate on 96-pore culture plate, 100 μl/pore. […] Set cell control group and virus infected cell control group. Incubate under 37° C. and 5% CO2. On the fourth day (96 hours), pipette out the supernatant liquid and store under −20° C. for determination of HIV-1 P24 antigen titer and calculation of drug inhibitory action. Add MTT staining to cells for determination of cytotoxicity. Determination of cytotoxicity by MTT staining: Add 10 μl of 5 mg/ml MTT stain into each pore, continue to incubate under 37° C., 5% CO2 and saturated humidity for 4 hours. […] Determine the HIV-1 P24 antigen titer according to the operation procedure provided by the HIV-1 P24 antigen reagent kit. Compare the drug-added group with virus control group. […] Calculation method of 50% toxic concentration (CC50), 50% effective concentration (EC50) and selection index (SI):
(§3) (3) Calculation Method of Selection Index (SI) on HIV-1 P24 Antigen in Cell Culture SI=CC50/EC50

[2] = MTT toxicity on PBMC infected by HIV-1 AZT-resistant strain 018c; settings: human
Method: as §1

[3] = test system: HIV-1 AZT-resistant strain 018c P24 antigen; test: Inhibition of HIV-1 018c P24 antigen in PBMC cell culture; type: cell-based; settings: 018c; for EC50: Human immunodeficiency virus 1, PBMC, 2 h, PBMC, administration after adsorbing 2 hours; for SI: SI=CC50/EC50
Method: as §2, §3

[4] = target: T1, glucocorticoid receptor of rat hepatic cytoplasm (Rattus norvegicus, UniProt P06536); test: Competition inhibition of [3H]-dexamethasone binding in rat hepatic cytoplasm; settings: read-out: Inhibition rate on binding of [3H]-dexamethasone
T1 construct: centrifuge at 175000 g for 1 hour, and take out the supernatant liquid as reserve; from tissue; host or cells: liver cytosol (175000 g supernatant) of adrenalectomised female SD rats
T1 sequence (P06536 1-795): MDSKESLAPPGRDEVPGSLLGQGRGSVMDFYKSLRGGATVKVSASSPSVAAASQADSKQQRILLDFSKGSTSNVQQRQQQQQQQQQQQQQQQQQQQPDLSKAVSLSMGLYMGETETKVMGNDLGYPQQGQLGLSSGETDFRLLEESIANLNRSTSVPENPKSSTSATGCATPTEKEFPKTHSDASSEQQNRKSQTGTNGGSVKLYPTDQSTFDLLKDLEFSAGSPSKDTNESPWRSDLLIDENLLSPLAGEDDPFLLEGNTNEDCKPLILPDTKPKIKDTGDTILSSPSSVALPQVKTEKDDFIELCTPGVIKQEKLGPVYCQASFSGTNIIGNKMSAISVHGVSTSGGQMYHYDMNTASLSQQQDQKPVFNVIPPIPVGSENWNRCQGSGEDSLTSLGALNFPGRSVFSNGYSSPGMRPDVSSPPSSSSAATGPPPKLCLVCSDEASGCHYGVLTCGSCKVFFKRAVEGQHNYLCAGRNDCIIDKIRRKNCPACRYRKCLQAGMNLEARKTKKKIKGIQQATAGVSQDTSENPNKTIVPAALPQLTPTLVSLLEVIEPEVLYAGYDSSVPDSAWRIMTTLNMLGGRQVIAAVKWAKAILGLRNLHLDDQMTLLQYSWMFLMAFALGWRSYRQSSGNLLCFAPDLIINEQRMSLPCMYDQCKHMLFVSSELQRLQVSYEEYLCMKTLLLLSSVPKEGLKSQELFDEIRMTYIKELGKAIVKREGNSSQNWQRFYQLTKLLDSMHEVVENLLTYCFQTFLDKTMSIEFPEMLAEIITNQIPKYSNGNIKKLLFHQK
Method: Clean female SD rats, body weight 200-250 g, are fed with certain quantity of food and freely drink water. The temperature is controlled at about 24° C. and an illumination cycle are for 11 hours by day and 13 hours at night. All animals are observed for 1 week before experiment. Incisions are made on two sides below arch of ribs on dorsal position of rats to extirpate adrenal glands. After operation, the rats are fed with physiological saline to maintain water-electrolyte balance. On the third day after operation, animals are acutely executed. The liver is taken out immediately and placed in ice cold buffer solution; the blood should be washed off as much as possible. Take certain quantity of tissue, add buffer solution (1:4), cut the tissue with scissors, intermittently homogenize the tissue under low temperature, centrifuge at 175000 g for 1 hour, and take out the supernatant liquid as reserve. […] Then carry out the competition inhibition experiment.

thymus gland cells = test: Anti-glucocorticoid activity test, [3H]-TdR incorporation in rat thymus gland cells; type: cell-based; settings: dexamethasone 6×10^−8 mol/L used singly
Method: Clean female SD rats, body weight 200-250 g, are fed with certain quantity of food and freely drink water. The temperature is controlled at about 24° C. and an illumination cycle are for 11 hours by day and 13 hours at night. All animals are observed for 1 week before experiment. Rats are anesthetized with ethyl ether. Incisions are made on two sides below costal arch of ribs on dorsal position of rats to extirpate adrenal glands. The rats are fed with physiological saline after operation. On the seventh day, animals are acutely executed. Take out thymus gland to place in to HBSS buffer solution, wash twice, remove connective tissue, cut the tissue with scissors, lightly grind with homogenizer, filter with three layers of gauze, and centrifuge the filtrate for 5 min (500 rpm). Wash the precipitated cells twice with HBSS, re-suspend the cells in RPMI1640 culture medium for cell count and cell survival rate determination, and adjust cell concentration to 1×10^7/ml. Determination of anti-glucocorticoid activity: Add tested compound into culture medium, reaction concentration 6×10^−[…], and place in 37° C. incubator for 3 hours. Add thymus gland cells to make cell concentration to become 10^7/ml and incubate at 37° C. for 3 hours. Add 1 μCi of label substance, mix, and incubate for 1 hour. Add 100 μl of ice cold 5% trichloroacetic acid to end the reaction. Place the test tube on ice and wash twice with 2 ml of ice cold 5% trichloroacetic acid and centrifuge twice, 500 rpm×5 min, Add 0.5 ml of 1N NaOH to dissolve the precipitated cells, pipet out the liquid, dry the residue with cotton stick, place into same scintillation bottle, and determine the radioactivity by liquid scintillation counter.
Calculate the incorporation rate of [^3H]-TdR:
In which: T=[^3H]-TdR count without presence of compound, Td=count with presence of compound, and NSB=non-specific adsorption.
Inhibition rate=100%−incorporation rate

[5] = 50% toxic concentration CC50, Average
[6] = 50% toxic concentration CC50, Experiment 1
[7] = 50% toxic concentration CC50, Experiment 2

Structure (SMILES)	EC50 ([1]; Average, PBMC) [µg/mL]	EC50 ([1]; Experiment 1, PBMC) [µg/mL]	EC50 ([1]; Experiment 2, PBMC) [µg/mL]	CC50 at 96 h [2, 5] [µg/mL]	CC50 at 96 h [2, 6] [µg/mL]	CC50 at 96 h [2, 7] [µg/mL]	EC50 ([3]; Average) [µg/mL]	EC50 ([3]; Experiment 1) [µg/mL]	EC50 ([3]; Experiment 2) [µg/mL]	also measured
Cc1cn([C@H]2C[C@H](N=[N+]=[N-])[C@@H](CO)O2)c(=O)[nH]c1=O [AZT, zidovudine]	< 0.0064	< 0.0061	< 0.0064	74.3 (≈ 278 µM)	70.7 (≈ 265 µM)	77.9 (≈ 291 µM)	0.054 (≈ 0.202 µM)	0.047 (≈ 0.176 µM)	0.061 (≈ 0.228 µM)	CC50 at 96 h (in vitro; 50% toxic concentration CC50): 58.8 µg/mL (≈ 220 µM); SI ([1]; SI=CC50/EC50, Average): 10275.78; SI ([1]; SI=CC50/EC50, Experiment 1): 9193.75; SI ([1]; SI=CC50/EC50, Experiment 2): 11357.81; SI ([3]; Average): 1390.87; SI ([3]; Experiment 1): 1504.68; SI ([3]; Experiment 2): 1277.05
CC#C[C@]1(O)CC[C@H]2[C@@H]3CCC4=CC(=O)CCC4=C3[C@@H](c3ccc(N(C)C)cc3)C[C@@]21C [Mifepristone, mifepristone]	12.4 (≈ 28.8 µM)	12.4 (≈ 28.9 µM)	12.4 (≈ 28.8 µM)	89.9 (≈ 209 µM)	105 (≈ 244 µM)	74.7 (≈ 174 µM)	10.1 (≈ 23.5 µM)	10.4 (≈ 24.2 µM)	9.84 (≈ 22.9 µM)	CC50 at 96 h (in vitro; 50% toxic concentration CC50, Average, PBMC, 018a): 83.6 µg/mL (≈ 195 µM); CC50 at 96 h (in vitro; 50% toxic concentration CC50, Experiment 1, PBMC, 018a): 69.4 µg/mL (≈ 162 µM); CC50 at 96 h (in vitro; 50% toxic concentration CC50, Experiment 2, PBMC, 018a): 97.8 µg/mL (≈ 228 µM)
C[C@@H]1C[C@H]2[C@@H]3CCC4=CC(=O)C=C[C@]4(C)[C@@]3(F)[C@@H](O)C[C@]2(C)[C@@]1(O)C(=O)CO [Dexamethasone, dexamethasone]	–	–	–	–	–	–	–	–	–	inhibition at 0.0008 µM [4]: 14.7 ± 7.34%; inhibition at 0.0016 µM [4]: 10.4 ± 6.11%; inhibition at 0.004 µM [4]: 24.8 ± 5.92%; inhibition at 0.02 µM [4]: 39.4 ± 4.83%; inhibition at 0.1 µM [4]: 60.4 ± 5.67%; inhibition at 0.5 µM [4]: 89.2 ± 8.56%; Incorporation rate of [3H]-TdR (thymus gland cells): 43.2%±3.7
